We go through 2 compounds from US20100210575A1, “STRUCTURING EFFECT OF CHOLESTEROL IN PEG-PHOSPHOLIPID MICELLES, DRUG DELIVERY OF AMPHOTERICIN B, AND COMBINATION ANTIFUNGALS” (WISCONSIN ALUMNI RESEARCH FOUNDATION, priority 2007, published 2010).

Series [1] deals with C. albicans 98-17 and C. albicans 98-234. As to the kind of experiment: In vitro susceptibility, broth microdilution, both isolates. It counts as cell-based. As to conditions: Candida albicans. Here is the method:
(§1) C. albicans 98-17 and C. albicans 98-234 were maintained on SDA plates. Susceptibility of yeast isolates was performed using broth microdilution in RPMI-1640 (supplemented with 0.165 M morpholinepropanesulfonic acid, buffered to pH 7.0) according to procedures recommended in NCCLS M27-A2 (25). Test drug solutions were incubated with yeast inoculum at 35° C. in 96-well plates for a 24 h period. All measurements were done in triplicate. Percent yeast growth relative to drug-free control was determined by measuring optical density (OD) at 650 nm, using the Microplate EL 312e plate reader. […] The MIC values were expressed as a mean of three determinations.
(§2) Calculation of a combination index was done in two steps. First, inhibition of fungal growth in response to varying concentrations of single-drug was fit to median-effect function:
(§3) where fa is the mean growth inhibition, relative to drug-free control, Dm is the drug concentration for a 50% growth inhibition, and m is the slope-factor describing the dose-response curve. Parameter Dm and m for each drug were estimated by non-linear regression using SigmaPlot (v. 9.0).

The subject of the next series is C. albicans 98-234. As to the kind of experiment: In vitro susceptibility, broth microdilution (MIC, median-effect fit). The settings on record: Candida albicans, 98234, strain 98-234. It counts as cell-based. The procedure: as §1, §2, §3
In general terms: Dilution methods test growth across graded concentrations, often in twofold steps.

Another series deals with C. albicans 98-17. The series is described as above. It counts as cell-based. The settings on record: Candida albicans, 9817, strain 98-17. Here is the method: as §1, §2, §3
Series [2] is described as follows: Critical aggregation concentration (CAC) of AmB. The format is physicochemical.
The target of a further series is 4% BSA (Bos taurus, UniProt P02769). Nature of the series: Electronic absorption kinetics at 412 nm upon dilution in serum albumin. As to conditions: AmB 10 μg/mL. It counts as physicochemical, bovine. The procedure:
Electronic absorption kinetics. Stock solutions containing AmB (micelle encapsulated or dissolved in DMSO) were added to 4% BSA, buffered to pH 7.0 with 10 mM HEPES. The final concentration of AmB was 10 μg/mL. For AmB dissolved in DMSO, the final DMSO content was less than 0.2%. Absorbance spectra were recorded from 300 to 450 nm at room temperature by using the Cary 50 spectrophotometer (Varian, Palo Alto, Calif.). Sequential spectra were acquired at 15 second intervals for the first 5 min; and at 1 minute intervals for an additional 40 minutes. A scan for baseline absorbance was taken before addition of AmB and was subtracted from each spectrum. The change in absorbance at 412 nm, […] was fit to a first-order process of the form A∞−At=a.e^−k.t using non-linear regression (SigmaPlot v.9.0).

Series [3] in a line: AmB release from PEG-DSPE micelles using equilibrium dialysis. The format is physicochemical. The settings on record: 25° C., 30 μg/mL AmB. Here is the method:
AmB release from PEG-DSPE micelles using equilibrium dialysis. AmB stock solutions (micelle encapsulated or dissolved in DMSO) were diluted to 30 μg/mL in HEPES buffer or in 4% BSA. These solutions were put in dialysis cassettes (MWCO 7000 g/mol, Pierce) and were placed in excess buffer (5 mM HEPES, pH 7.0). The MWCO of the dialysis membrane was chosen to allow for diffusion of AmB (molecular weight 924.1) while retaining large molecules such as bovine serum albumin (molecular weight 66 kDa) and intact micelles (molecular weight >100 kDa). Near-sink conditions for AmB were maintained by performing the release experiment in a 100-fold excess dialysis buffer. Because AmB is susceptible to degradation, the dialysis buffer was degassed overnight and 20 μg/mL propyl gallate was added as an antioxidant (15, 16). At predetermined time intervals, 100 μL samples were taken and AmB concentration in dialysis cassettes was determined using reversed-phase HPLC. […]
AmB release was fit to a first-order process of the form At/A0=a.e^−k.t by non-linear regression (SigmaPlot v.9.0). […] The half-life t1/2 for AmB release was calculated using t1/2=0.693/k.
For determination of AmB content, 15 μL samples were injected into 4.6 mm×150 mm Eclipse XDB-C8 reversed-phase column (Agilent Technologies) and AmB absorbance detected at 412 nm using the diode array detector. […]
Background: In equilibrium dialysis free small molecules cross a membrane that holds back macromolecules.

Where [4] appears, read: >95% inhibition, 24 h, 35° C., read-out: Minimum Inhibitory Concentrations (MIC).
Where [5] appears, read: median-effect fit, read-out: Dm × 10^3 (concentration for 50% growth inhibition).

Chain of 4% BSA (P02769 25-607): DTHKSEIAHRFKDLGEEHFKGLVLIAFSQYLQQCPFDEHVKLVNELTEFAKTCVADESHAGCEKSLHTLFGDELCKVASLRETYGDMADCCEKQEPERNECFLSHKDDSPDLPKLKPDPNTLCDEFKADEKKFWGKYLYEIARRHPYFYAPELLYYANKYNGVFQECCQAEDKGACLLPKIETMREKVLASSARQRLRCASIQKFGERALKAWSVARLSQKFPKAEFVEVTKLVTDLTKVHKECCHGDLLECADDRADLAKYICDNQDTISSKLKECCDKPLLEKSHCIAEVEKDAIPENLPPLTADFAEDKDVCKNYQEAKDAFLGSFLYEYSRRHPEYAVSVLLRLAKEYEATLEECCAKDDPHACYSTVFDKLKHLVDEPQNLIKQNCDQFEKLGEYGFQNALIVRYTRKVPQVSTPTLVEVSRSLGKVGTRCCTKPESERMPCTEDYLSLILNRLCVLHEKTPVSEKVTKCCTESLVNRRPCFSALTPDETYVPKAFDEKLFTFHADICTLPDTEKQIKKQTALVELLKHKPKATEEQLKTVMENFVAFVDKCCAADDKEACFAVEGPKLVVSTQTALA

Consider `Nc1nc(=O)[nH]cc1F` [5-FC, 5-fluorocytosine], for which the MIC in series [1] (both isolates, 24 h) was determined as 0.1 µg/mL; in the series on C. albicans 98-234 (setting [4]) it was 0.1 µg/mL; in the series with C. albicans 98-17 (setting [4]) it was 0.1 µg/mL. The IC50 in series [1] (range over isolates, read-out: Dm) was 0.04 to 0.07 µg/mL; in the series on C. albicans 98-234 (setting [5]) it was 39.8 ± 0.1 µg/mL; in the series with C. albicans 98-17 (setting [5]), 70.7 ± 7.3 µg/mL.
Turning to `C[C@@H]1[C@H](O)[C@@H](C)/C=C/C=C/C=C/C=C/C=C/C=C/C=C/[C@H](O[C@@H]2O[C@H](C)[C@@H](O)[C@H](N)[C@@H]2O)C[C@@H]2O[C@](O)(C[C@@H](O)C[C@@H](O)[C@H](O)CC[C@@H](O)C[C@@H](O)CC(=O)O[C@H]1C)C[C@H](O)[C@H]2C(=O)O` [Free AmB, Amphotericin B], the CAC in series [2] (in 4% BSA) was found to be 10 µM; in series [2] (in HEPES) it was 1 μMA. The “A∞ (absorbance at 412 nm)” value on 4% BSA turned out to be 0.77. On 4% BSA (room temperature), the “100 k (absorbance change at 412 nm)” value worked out at 3.25 ± 0.23 min⁻¹. Also, the “100 · k (AmB release, first-order fit)” value in series [3] (5 mM HEPES) turned out to be 1.01 ± 0.10 h⁻¹; in series [3] (4% BSA), 3.72 ± 0.04 h⁻¹.
